{
  "source": "patent US10548835B2",
  "about": "“Methods of reducing the signs of skin aging” (Kimberly-Clark Worldwide, Inc., priority 2014, dated 2020)",
  "origin": "cited, not measured here",
  "system": "3T3-L1 cells",
  "details": "literature",
  "data": [
    {"substance": "Fucoidan", "values": [
      {"measurement": "adipogenesis (adipocyte differentiation)", "result": "inhibit adipogenesis"}
    ]}
  ]
}
